Results published in ChEMBL document CHEMBL6177941, “Recent advances from computer-aided drug design to artificial intelligence drug design” (RSC Med Chem, 2024).
Converted amounts (≈) assume the structure as drawn. Values belong to the compound of their own block, whether it stands above or below them.

Assays:
Acinetobacter baumannii = assay: microbe, parasite or virus in culture; conditions: ATCC 17978
Description: Antibacterial activity against Acinetobacter baumannii ATCC 17978

Escherichia coli = assay: Antibacterial activity against Escherichia coli
[1] = Inhibition of Poly-L-Histidine tagged full length recombinant Trypanosoma cruzi Sir2p extracted from Escherichia coli BL21 (DE) using Abz-Gly-Pro-AcetylLys-Ser-Gln-EDDnp peptide as substrate incubated for 30 mins by fluorescence based analysis
Androgen receptor = target: T1, Androgen receptor (Homo sapiens, UniProt P10275); assay: Inhibition of full length human Androgen receptor DNA binding domain dimerization
T1 sequence (P10275 whole entry): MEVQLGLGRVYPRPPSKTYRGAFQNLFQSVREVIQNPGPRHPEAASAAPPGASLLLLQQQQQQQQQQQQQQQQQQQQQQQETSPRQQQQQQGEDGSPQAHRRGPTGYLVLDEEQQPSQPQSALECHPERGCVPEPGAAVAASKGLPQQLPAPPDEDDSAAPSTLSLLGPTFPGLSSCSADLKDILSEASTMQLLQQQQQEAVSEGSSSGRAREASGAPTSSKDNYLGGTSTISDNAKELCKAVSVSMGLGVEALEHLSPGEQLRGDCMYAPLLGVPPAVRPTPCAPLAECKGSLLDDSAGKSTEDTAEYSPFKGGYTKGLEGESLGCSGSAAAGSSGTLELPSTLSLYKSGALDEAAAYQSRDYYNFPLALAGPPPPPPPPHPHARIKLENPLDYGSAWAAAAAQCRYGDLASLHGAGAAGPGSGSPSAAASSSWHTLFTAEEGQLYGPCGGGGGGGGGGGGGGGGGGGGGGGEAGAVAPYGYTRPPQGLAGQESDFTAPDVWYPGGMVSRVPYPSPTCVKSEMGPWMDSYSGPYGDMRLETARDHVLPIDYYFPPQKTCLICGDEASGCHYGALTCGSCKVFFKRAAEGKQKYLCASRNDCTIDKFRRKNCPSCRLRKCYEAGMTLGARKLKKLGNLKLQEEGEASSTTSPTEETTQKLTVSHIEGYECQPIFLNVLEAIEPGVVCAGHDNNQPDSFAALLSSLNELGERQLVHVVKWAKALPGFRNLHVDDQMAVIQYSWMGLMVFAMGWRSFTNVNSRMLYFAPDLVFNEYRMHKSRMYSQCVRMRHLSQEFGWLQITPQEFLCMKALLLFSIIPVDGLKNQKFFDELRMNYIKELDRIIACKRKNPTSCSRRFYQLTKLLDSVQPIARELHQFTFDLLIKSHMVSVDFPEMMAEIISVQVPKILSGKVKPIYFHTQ

[2] = target: T2, Serine/threonine-protein kinase Sgk3 (Homo sapiens, UniProt Q96BR1); assay: Inhibition of SGK3 (unknown origin)
T2 sequence (Q96BR1 whole entry): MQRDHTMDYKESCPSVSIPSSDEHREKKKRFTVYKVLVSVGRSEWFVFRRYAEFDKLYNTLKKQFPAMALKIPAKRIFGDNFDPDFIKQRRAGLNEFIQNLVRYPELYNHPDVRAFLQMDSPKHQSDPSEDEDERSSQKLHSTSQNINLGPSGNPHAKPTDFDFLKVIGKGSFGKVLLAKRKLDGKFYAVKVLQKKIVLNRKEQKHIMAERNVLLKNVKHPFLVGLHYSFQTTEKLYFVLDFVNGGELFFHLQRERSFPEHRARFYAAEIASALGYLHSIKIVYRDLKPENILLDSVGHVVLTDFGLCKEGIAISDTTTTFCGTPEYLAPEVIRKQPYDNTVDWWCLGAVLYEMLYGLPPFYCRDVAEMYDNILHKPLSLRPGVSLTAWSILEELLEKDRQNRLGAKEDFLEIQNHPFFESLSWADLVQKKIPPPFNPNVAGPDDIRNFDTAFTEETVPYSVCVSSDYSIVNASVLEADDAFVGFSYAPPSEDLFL

[3] = target: 5-hydroxytryptamine receptor 2A (Homo sapiens, UniProt P28223); assay: Agonist activity at human 5-HT2A receptor expressed in HEK293 cells incubated for 60 mins by BRET assay
5-hydroxytryptamine receptor 2A, sequence (P28223 whole entry): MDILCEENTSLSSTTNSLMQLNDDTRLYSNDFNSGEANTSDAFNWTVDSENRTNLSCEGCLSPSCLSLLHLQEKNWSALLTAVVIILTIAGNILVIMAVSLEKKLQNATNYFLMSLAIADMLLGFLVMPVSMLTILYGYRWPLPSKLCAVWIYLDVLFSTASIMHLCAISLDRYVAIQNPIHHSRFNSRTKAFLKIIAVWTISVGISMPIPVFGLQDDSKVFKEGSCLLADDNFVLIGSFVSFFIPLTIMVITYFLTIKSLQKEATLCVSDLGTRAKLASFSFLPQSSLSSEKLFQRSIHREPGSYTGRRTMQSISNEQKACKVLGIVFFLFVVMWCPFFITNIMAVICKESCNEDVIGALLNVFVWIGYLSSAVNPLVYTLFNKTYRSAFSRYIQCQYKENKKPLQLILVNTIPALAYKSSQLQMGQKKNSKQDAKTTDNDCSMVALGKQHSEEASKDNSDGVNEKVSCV

Speckle-type POZ protein = Speckle-type POZ protein (Homo sapiens, UniProt O43791)
Speckle-type POZ protein, sequence (O43791 whole entry, the tested form may be a part): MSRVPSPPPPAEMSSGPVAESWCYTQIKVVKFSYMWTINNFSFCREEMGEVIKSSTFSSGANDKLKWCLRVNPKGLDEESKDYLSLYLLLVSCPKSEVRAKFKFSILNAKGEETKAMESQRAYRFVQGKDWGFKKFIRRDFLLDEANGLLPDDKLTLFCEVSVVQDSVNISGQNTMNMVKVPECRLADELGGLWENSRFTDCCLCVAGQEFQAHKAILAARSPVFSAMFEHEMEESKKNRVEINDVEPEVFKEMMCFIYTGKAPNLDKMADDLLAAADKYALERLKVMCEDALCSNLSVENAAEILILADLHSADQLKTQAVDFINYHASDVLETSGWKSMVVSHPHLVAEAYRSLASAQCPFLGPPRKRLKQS

[4] = target: Myeloid differentiation primary response protein MyD88 (Homo sapiens, UniProt Q99836); assay: Binding affinity to MYD88 Toll/interleukin-1 receptor domain (unknown origin) assessed as dissociation constant by SPR assay
Myeloid differentiation primary response protein MyD88, sequence (Q99836 whole entry, the tested form may be a part): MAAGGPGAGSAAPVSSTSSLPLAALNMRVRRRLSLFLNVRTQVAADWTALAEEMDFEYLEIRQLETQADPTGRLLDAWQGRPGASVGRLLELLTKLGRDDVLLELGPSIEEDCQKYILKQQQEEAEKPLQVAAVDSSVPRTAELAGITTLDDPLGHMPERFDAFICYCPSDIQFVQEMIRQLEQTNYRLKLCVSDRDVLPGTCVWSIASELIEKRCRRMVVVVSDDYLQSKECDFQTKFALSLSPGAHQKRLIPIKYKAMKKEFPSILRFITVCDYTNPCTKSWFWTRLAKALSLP

Staphylococcus aureus [5] = assay: microbe, parasite or virus in culture; conditions: ATCC 43300, 24 h
Description: Antibacterial activity against methicillin-resistant Staphylococcus aureus ATCC 43300 assessed as reduction in bacterial growth incubated for 24 hrs by CLSI protocol based broth micro-dilution method

Staphylococcus aureus [6] = assay: microbe, parasite or virus in culture; conditions: ATCC 35556, 24 h
Description: Antibacterial activity against wild type Staphylococcus aureus ATCC 35556 assessed as reduction in bacterial growth incubated for 24 hrs by CLSI protocol based broth micro-dilution method

MOLT-4 = assay: Antiproliferative activity against human MOLT-4 cells assessed as reduction in cell growth incubated for 72 hrs by Cell-titer glo luminescent cell viability assay; conditions: MOLT-4, 72 h
[7] = target: Tyrosine-protein kinase JAK2 (Homo sapiens, UniProt O60674); assay: Inhibition of JAK2 (unknown origin) by Z'-LYTE kinase assay
Tyrosine-protein kinase JAK2, sequence (O60674 whole entry): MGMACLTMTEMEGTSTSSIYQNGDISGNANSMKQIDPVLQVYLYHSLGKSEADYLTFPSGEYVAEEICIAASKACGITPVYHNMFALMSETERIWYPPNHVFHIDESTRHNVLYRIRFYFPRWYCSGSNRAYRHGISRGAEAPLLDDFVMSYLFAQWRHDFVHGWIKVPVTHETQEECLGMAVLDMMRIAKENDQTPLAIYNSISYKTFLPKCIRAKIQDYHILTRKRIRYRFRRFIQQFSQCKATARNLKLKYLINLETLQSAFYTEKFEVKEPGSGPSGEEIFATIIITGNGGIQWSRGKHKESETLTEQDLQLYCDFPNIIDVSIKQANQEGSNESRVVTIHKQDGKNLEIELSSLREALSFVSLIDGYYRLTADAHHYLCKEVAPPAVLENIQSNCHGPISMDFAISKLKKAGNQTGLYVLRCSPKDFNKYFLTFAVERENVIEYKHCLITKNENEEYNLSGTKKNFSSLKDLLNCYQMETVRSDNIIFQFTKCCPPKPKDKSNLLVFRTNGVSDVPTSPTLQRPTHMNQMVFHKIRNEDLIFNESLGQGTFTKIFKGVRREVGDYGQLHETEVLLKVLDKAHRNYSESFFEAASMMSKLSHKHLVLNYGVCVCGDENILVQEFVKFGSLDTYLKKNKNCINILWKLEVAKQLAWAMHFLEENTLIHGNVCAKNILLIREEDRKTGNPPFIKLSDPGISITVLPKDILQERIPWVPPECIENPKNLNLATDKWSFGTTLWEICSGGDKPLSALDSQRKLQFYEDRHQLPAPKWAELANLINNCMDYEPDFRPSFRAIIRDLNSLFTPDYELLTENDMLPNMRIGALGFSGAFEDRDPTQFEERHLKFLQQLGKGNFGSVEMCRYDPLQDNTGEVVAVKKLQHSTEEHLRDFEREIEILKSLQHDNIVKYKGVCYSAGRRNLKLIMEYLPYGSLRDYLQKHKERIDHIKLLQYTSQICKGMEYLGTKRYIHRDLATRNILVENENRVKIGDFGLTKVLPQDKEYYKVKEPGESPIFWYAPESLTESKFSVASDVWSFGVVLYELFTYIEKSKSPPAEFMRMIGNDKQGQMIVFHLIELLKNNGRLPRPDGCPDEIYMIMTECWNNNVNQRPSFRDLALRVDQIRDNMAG

[8] = target: Rho-associated protein kinase 1 (Homo sapiens, UniProt Q13464)
Rho-associated protein kinase 1, sequence (Q13464 whole entry, the tested form may be a part): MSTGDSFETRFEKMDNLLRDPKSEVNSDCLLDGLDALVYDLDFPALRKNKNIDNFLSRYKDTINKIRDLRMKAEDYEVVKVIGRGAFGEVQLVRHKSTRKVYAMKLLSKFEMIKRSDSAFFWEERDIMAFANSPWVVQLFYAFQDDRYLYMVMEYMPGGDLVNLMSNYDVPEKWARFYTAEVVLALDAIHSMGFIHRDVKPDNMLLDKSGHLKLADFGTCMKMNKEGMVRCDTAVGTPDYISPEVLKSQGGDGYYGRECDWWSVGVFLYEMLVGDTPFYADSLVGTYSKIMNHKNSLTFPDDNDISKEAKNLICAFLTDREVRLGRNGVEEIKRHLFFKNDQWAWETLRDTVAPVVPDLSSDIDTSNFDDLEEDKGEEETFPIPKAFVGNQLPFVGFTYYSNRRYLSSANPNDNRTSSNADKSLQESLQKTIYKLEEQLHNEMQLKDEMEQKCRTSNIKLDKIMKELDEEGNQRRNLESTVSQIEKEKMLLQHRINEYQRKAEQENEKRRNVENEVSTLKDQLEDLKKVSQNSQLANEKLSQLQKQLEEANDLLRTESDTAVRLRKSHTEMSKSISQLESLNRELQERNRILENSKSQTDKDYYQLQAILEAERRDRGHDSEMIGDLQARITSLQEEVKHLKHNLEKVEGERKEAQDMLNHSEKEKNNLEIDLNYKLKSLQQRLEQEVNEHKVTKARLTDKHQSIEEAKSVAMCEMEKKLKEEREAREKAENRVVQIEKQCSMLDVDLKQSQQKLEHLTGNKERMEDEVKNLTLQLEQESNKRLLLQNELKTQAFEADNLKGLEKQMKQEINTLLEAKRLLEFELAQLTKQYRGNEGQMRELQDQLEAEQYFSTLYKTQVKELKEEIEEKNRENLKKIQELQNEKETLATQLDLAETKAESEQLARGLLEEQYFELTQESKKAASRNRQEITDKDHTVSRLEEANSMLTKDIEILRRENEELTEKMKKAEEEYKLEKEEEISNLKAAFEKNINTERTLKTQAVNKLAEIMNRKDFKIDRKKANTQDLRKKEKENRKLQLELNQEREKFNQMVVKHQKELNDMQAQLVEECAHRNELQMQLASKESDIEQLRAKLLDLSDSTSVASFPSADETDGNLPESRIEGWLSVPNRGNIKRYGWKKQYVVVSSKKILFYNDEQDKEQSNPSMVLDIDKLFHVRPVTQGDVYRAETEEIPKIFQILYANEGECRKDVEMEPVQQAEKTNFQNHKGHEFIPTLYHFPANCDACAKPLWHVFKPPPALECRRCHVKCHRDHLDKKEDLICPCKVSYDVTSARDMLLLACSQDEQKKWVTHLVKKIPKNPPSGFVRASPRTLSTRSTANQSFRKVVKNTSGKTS
Description: Binding affinity to N-terminal GST-tagged human ROCK1 catalytic domain (1 to 477 residues) expressed in Sf21 insect cells assessed as inhibition constant by NanoBRET intracellular kinase assay

[9] = target: Epithelial discoidin domain-containing receptor 1 (Homo sapiens, UniProt Q08345)
Epithelial discoidin domain-containing receptor 1, sequence (Q08345 whole entry, the tested form may be a part): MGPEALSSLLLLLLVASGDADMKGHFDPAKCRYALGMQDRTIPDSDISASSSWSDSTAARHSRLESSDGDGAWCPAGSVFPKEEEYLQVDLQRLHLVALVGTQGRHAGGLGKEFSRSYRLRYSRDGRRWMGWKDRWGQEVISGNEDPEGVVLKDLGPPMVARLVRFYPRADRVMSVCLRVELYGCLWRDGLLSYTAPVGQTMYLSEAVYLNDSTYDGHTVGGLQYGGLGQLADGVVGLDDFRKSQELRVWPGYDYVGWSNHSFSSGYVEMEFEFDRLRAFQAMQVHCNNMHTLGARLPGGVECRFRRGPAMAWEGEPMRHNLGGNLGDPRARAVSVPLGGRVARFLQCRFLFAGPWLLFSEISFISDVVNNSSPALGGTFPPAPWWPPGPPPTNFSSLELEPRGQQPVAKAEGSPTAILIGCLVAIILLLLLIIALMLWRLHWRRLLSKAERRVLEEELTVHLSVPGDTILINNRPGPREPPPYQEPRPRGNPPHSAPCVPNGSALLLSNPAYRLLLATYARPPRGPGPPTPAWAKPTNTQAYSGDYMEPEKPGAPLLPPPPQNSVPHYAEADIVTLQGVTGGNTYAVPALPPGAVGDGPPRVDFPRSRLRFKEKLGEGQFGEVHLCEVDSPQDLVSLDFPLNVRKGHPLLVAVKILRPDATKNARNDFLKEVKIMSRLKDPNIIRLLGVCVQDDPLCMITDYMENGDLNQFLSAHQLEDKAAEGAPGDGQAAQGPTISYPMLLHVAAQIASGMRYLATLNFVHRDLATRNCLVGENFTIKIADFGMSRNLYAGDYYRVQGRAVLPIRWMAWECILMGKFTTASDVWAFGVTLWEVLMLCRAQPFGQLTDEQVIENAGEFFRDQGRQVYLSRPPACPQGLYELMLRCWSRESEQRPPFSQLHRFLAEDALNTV

Cannabinoid receptor 2 = Cannabinoid receptor 2 (Homo sapiens, UniProt P34972); assay: Binding affinity to human CB2 receptor assessed as inhibition constant
Cannabinoid receptor 2, sequence (P34972 whole entry): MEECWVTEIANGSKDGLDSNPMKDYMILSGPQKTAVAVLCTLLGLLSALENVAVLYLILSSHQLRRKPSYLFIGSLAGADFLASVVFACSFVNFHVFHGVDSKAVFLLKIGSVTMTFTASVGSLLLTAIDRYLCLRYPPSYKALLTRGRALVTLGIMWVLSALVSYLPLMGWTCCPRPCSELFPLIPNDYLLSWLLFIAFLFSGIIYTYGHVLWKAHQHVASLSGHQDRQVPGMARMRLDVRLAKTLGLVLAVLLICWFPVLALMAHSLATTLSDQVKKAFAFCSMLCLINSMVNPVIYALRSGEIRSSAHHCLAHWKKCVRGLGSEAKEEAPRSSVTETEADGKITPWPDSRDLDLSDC

VCaP = assay: Antiproliferative activity against human VCaP cells expressing ERG level assessed as reduction in cell viability incubated for 72 hrs by CCK8 assay

Structure (SMILES): O=C1Nc2ccccc2C2(CCN(CCc3ccc(C(F)(F)F)cc3)CC2)O1
MIC (Acinetobacter baumannii): 2 µg/mL (≈ 5.12 µM)

MIC (Escherichia coli): 2 µg/mL (≈ 7.65 µM)
Structure (SMILES): Nc1nnc(Sc2ncc([N+](=O)[O-])s2)s1

Structure (SMILES): O=C(NCc1coc(-c2ccccc2)n1)Nc1ccc(-c2noc(C(F)(F)F)n2)cc1
IC50 [1]: 40000 nM

IC50 (Androgen receptor): 5000 nM
Structure (SMILES): CC(O)(CNC(=O)/C=C/c1ccnc2ccccc12)c1ccsc1 (configuration not stated)

IC50 [2]: 179000 nM
Structure (SMILES): COc1ccc(/C=C/c2[nH]c(=O)[nH]c(=O)c2[N+](=O)[O-])cc1OC

Structure (SMILES): C[C@@H]1C=C(c2c[nH]c3ncccc23)CN(C)C1
EC50 [3]: 110 nM

IC50 (Speckle-type POZ protein): 4510 nM
Structure (SMILES): Cc1nnc(SCC2=C(C(=O)O)N3C(=O)[C@@H](NC(=O)c4ccc(COc5ccccc5Cl)o4)[C@H]3SC2)s1

IC50 (Androgen receptor): 2000 nM
Structure (SMILES): O=C(NCc1cccc2ccccc12)NCC(O)(c1cccs1)c1cccs1

Kd [4]: 165000 nM
Structure (SMILES): O=C(CN1CCC(CCc2ccccc2)CC1)Nc1n[nH]c2ncccc12

Structure (SMILES): CC1(C)[C@H]2Cc3cc(-c4cc5c(cn4)[C@@H]4C[C@H](C5)C4(C)C)ncc3[C@@H]1C2
MIC (Staphylococcus aureus [5]): 8 µg/mL (≈ 23.2 µM)
MIC (Staphylococcus aureus [6]): 8 µg/mL (≈ 23.2 µM)

IC50 (MOLT-4): 116 nM
IC50 [7]: 70 nM
Ki [8]: 38 nM
IC50 [9]: 10 nM
Structure (SMILES): COCc1cccc(CC(=O)Nc2ccc(-c3cn[nH]c3)cc2)c1

Ki (Cannabinoid receptor 2): 0.9 nM
Structure (SMILES): COCC(C)(NC(=O)c1ccc(N2CCCCC2)c(S(=O)(=O)N2CCCCC2)c1)C1CC1 (configuration not stated)

IC50 (VCaP): 2560 nM
Structure (SMILES): O=C(N/N=C/c1ccc([N+](=O)[O-])o1)c1ccc(O)cc1 [NIFUROXAZIDE]
